What all share (format): biochemical
In one assay the target is T1, COX-2 (Homo sapiens, UniProt P35354).
T1 sequence (P35354 18-604): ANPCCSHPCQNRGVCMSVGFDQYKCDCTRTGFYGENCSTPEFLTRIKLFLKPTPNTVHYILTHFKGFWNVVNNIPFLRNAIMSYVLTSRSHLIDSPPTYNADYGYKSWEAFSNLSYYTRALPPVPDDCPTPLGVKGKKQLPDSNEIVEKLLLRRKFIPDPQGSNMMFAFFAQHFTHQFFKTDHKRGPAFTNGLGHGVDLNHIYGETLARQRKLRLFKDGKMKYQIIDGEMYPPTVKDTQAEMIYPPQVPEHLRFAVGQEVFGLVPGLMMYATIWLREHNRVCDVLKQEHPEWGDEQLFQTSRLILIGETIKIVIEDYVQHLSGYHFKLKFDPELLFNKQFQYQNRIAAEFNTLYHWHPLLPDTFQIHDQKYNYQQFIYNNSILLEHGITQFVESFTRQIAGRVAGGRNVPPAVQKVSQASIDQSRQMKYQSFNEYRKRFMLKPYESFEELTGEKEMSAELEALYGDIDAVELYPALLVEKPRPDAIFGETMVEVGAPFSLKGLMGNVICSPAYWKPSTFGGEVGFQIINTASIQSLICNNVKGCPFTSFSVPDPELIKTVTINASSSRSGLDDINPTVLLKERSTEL
The assay is described as follows: In vitro COX inhibitory assay. The settings on record: for Inhibition of COX-2 in comparison to indomethacin: result in words; for Selectivity index: COX-1/COX-2 selectivity index; for inhibition at 50 µg/mL / inhibition at 100 µg/mL / inhibition at 150 µg/mL: read-out: Inhibition of COX-2 (%).

Another assay deals with T2, egg albumin (Gallus gallus, UniProt P01012).
T2 sequence (P01012 2-386): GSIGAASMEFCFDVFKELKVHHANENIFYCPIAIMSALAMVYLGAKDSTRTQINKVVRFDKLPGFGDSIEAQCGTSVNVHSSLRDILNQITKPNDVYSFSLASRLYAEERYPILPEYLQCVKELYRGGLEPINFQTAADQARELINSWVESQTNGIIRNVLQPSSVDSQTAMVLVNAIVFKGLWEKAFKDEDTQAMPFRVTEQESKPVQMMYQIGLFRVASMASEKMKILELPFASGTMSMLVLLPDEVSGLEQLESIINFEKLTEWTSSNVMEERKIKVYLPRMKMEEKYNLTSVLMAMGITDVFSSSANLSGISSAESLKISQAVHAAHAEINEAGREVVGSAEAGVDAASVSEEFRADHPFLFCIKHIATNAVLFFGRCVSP
The assay is described as follows: Inhibition of protein denaturation method. Particulars: read-out: Inhibition of protein denaturation (%).

The target in a further assay is T3, COX-1 (Ovis aries, UniProt P05979).
T3 sequence (P05979 25-600): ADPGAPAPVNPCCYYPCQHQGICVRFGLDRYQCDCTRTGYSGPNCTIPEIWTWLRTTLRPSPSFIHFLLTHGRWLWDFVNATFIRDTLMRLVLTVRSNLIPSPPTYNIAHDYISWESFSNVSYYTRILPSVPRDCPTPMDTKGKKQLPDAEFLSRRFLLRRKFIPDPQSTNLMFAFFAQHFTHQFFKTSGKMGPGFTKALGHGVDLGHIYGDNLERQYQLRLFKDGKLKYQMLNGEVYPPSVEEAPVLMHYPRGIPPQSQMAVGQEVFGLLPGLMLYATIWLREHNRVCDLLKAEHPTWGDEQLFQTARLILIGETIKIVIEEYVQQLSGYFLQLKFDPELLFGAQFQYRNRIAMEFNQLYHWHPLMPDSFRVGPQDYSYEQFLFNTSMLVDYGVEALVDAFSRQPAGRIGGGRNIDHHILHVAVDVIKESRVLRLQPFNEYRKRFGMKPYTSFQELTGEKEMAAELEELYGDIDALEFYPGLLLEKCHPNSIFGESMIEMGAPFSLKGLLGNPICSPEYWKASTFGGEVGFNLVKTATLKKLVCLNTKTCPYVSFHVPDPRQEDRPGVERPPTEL
The assay is described as follows: In vitro COX inhibitory assay. The settings on record: for Inhibition of COX-1 in comparison to indomethacin: result in words; for inhibition at 50 µg/mL / inhibition at 100 µg/mL / inhibition at 150 µg/mL: read-out: Inhibition of COX-1 (%).

Molecules are shown by their SMILES.

As to `NC1=NC(c2cccc3ccccc23)n2nc(C(=O)Nc3ccc(S(N)(=O)=O)cc3)nc2N1` (centres unmarked) [Compound 10, 5-Amino-7-(naphthalen-1-yl)-N-(4-sulfamoylphenyl)-4,7-dihydro-[1,2,4]-triazolo[1,5-a][1,3,5]triazine-2-carboxamide], the “Inhibition of COX-2 in comparison to indomethacin” value (shortened to “Inhibition of COX-2 in comparison”) at COX-2 was “less inhibition”. On egg albumin, the inhibition at 50 µg/mL worked out at 55%, the inhibition at 100 µg/mL amounted to 59.7%, the inhibition at 200 µg/mL is 65.5% and the inhibition at 300 µg/mL was determined as 73.4%. For the same compound, the “Inhibition of COX-1 in comparison to indomethacin” value (“Inhibition of COX-1 in comparison” for short) on COX-1 was “less inhibition”.
Usually IC50 stands for the concentration at which inhibition is half-maximal. Read a low IC50 as greater potency in that assay. Consider `NC1=NC(c2ccccc2Cl)n2nc(C(=O)Nc3ccc(S(N)(=O)=O)cc3)nc2N1` (centres unmarked) [Compound 8, 5-Amino-7-(2-chlorophenyl)-N-(4-sulfamoylphenyl)-4,7-dihydro-[1,2,4]-triazolo[1,5-a][1,3,5]triazine-2-carboxamide], for which, on COX-2, the IC50 is 89.3 µM, the Selectivity index was 2.07, the inhibition at 50 µg/mL worked out at 62.64 ± 0.01% and the inhibition at 100 µg/mL was determined as 64.78 ± 0.01%. The inhibition at 150 µg/mL at COX-2 turned out to be 71.61 ± 0.01%. Also, at egg albumin, the inhibition at 50 µg/mL was 59.5%, the inhibition at 100 µg/mL worked out at 64.2%, the inhibition at 200 µg/mL turned out to be 70% and the inhibition at 300 µg/mL is 77.9%. For the same compound, on COX-1, the IC50 was 186 µM, the inhibition at 50 µg/mL stood at 30.12 ± 0.02%, the inhibition at 100 µg/mL amounted to 55.41 ± 0.05% and the inhibition at 150 µg/mL turned out to be 71.23 ± 0.05%.
As to `NC1=NC(/C=C/c2ccccc2)n2nc(C(=O)Nc3ccc(S(N)(=O)=O)cc3)nc2N1` (centres unmarked) [Compound 6, (E)-5-Amino-7-styryl-N-(4-sulfamoylphenyl)-4,7-dihydro-[1,2,4]-triazolo[1,5-a][1,3,5]triazine-2-carboxamide], the “Inhibition of COX-2 in comparison” value at COX-2 is “less inhibition”. On egg albumin, the inhibition at 50 µg/mL came out at 53.7%, the inhibition at 100 µg/mL is 58.4%, the inhibition at 200 µg/mL stood at 67.4% and the inhibition at 300 µg/mL came to 72.1%. In addition, the “Inhibition of COX-1 in comparison” value on COX-1 is given as “less inhibition”.
Consider `NC1=NC(C2N=C(N)Nc3nc(C(=O)Nc4ccc(S(N)(=O)=O)cc4)nn32)n2nc(C(=O)Nc3ccc(S(N)(=O)=O)cc3)nc2N1` (centres unmarked) [Compound 7, 5,5′-Diamino-N2,N2′-bis(4-sulfamoylphenyl)-4,4′,7,7′-tetrahydro-[7,7′-bi[1,2,4]triazolo[1,5-a][1,3,5]triazine]-2,2′-dicarboxamide], for which, on COX-2, the “Inhibition of COX-2 in comparison” value is listed as “less inhibition”. Further, on egg albumin, the inhibition at 50 µg/mL is 54.7%, the inhibition at 100 µg/mL amounted to 59.5%, the inhibition at 200 µg/mL stood at 65.3% and the inhibition at 300 µg/mL worked out at 73.2%. For the same compound, on COX-1, the “Inhibition of COX-1 in comparison” value is “less inhibition”.
In the case of `Cc1ccccc1C1N=C(N)Nc2nc(C(=O)Nc3ccc(S(N)(=O)=O)cc3)nn21` (centres unmarked) [Compound 5, 5-Amino-N-(4-sulfamoylphenyl)-7-(o-tolyl)-4,7-dihydro-[1,2,4]-triazolo[1,5-a][1,3,5]triazine-2-carboxamide], at COX-2, inhibition was half-maximal at 97.7 µM (IC50), the Selectivity index was 1.84, the inhibition at 50 µg/mL was 60.01 ± 0.05% and the inhibition at 100 µg/mL was 67.25 ± 0.02%. In addition, the inhibition at 150 µg/mL on COX-2 turned out to be 75.31 ± 0.01%. Further, at egg albumin, the inhibition at 50 µg/mL came to 59.7%, the inhibition at 100 µg/mL turned out to be 64.5%, the inhibition at 200 µg/mL was determined as 70.3% and the inhibition at 300 µg/mL is 78.2%. Also, on COX-1, it took 180 µM to reach half-maximal inhibition (IC50), the inhibition at 50 µg/mL is 32.51 ± 0.03%, the inhibition at 100 µg/mL amounted to 56.64 ± 0.01% and the inhibition at 150 µg/mL is 74.32 ± 0.03%.
In the case of `COc1ccc(C2N=C(N)Nc3nc(C(=O)Nc4ccc(S(N)(=O)=O)cc4)nn32)cc1` (centres unmarked) [Compound 9, 5-Amino-7-(4-methoxyphenyl)-N-(4-sulfamoylphenyl)-4,7-dihydro-[1,2,4]-triazolo[1,5-a][1,3,5]triazine-2-carboxamide], on COX-2, the “Inhibition of COX-2 in comparison” value is listed as “less inhibition”. At egg albumin, the inhibition at 50 µg/mL came out at 51%, the inhibition at 100 µg/mL was 55.8%, the inhibition at 200 µg/mL came out at 61.6% and the inhibition at 300 µg/mL was determined as 69.5%. In addition, the “Inhibition of COX-1 in comparison” value on COX-1 is recorded as “less inhibition”.
On to `NC1=NC(c2ccco2)n2nc(C(=O)Nc3ccc(S(N)(=O)=O)cc3)nc2N1` (centres unmarked) [Compound 4, 5-Amino-7-(furan-2-yl)-N-(4-sulfamoylphenyl)-4,7-dihydro-[1,2,4]-triazolo[1,5-a][1,3,5]triazine-2-carboxamide], for which, on COX-2, the IC50 was 69 µM, the Selectivity index is recorded as 1.44, the inhibition at 50 µg/mL stood at 90.03 ± 0.02% and the inhibition at 100 µg/mL was 95.11 ± 0.01%. On COX-2, the inhibition at 150 µg/mL came to 98.92 ± 0.02%. Moreover, on egg albumin, the inhibition at 50 µg/mL came out at 90.3%, the inhibition at 100 µg/mL was determined as 95%, the inhibition at 200 µg/mL is 99.2% and the inhibition at 300 µg/mL was determined as 91.3%. At COX-1, 99.5 µM corresponded to half-maximal inhibition (IC50), the inhibition at 50 µg/mL was determined as 62.43 ± 0.01%, the inhibition at 100 µg/mL amounted to 80.64 ± 0.01% and the inhibition at 150 µg/mL is 90.02 ± 0.02%.
Take `NC1=NC(c2ccccc2O)n2nc(C(=O)Nc3ccc(S(N)(=O)=O)cc3)nc2N1` (centres unmarked) [Compound 11, 5-Amino-7-(2-hydroxyphenyl)-N-(4-sulfamoylphenyl)-4,7-dihydro-[1,2,4]-triazolo[1,5-a][1,3,5]triazine-2-carboxamide]: at COX-2, inhibition was half-maximal at 96.7 µM (IC50), the Selectivity index is reported as 1.46, the inhibition at 50 µg/mL amounted to 60.3 ± 0.05% and the inhibition at 100 µg/mL was 81.99 ± 0.01%. For the same compound, the inhibition at 150 µg/mL on COX-2 came out at 98.97 ± 0.06%. Also, at egg albumin, the inhibition at 50 µg/mL amounted to 83.4%, the inhibition at 100 µg/mL amounted to 88.2%, the inhibition at 200 µg/mL came to 93.9% and the inhibition at 300 µg/mL worked out at 98.2%. In addition, at COX-1, the IC50 is 141 µM, the inhibition at 50 µg/mL came to 41.28 ± 0.04%, the inhibition at 100 µg/mL is 63.43 ± 0.04% and the inhibition at 150 µg/mL worked out at 80.12 ± 0.03%.
On to `NC1=NC(c2cccc(O)c2)n2nc(C(=O)Nc3ccc(S(N)(=O)=O)cc3)nc2N1` (centres unmarked) [Compound 13, 5-Amino-7-(3-hydroxyphenyl)-N-(4-sulfamoylphenyl)-4,7-dihydro-[1,2,4]-triazolo[1,5-a][1,3,5]triazine-2-carboxamide], for which the “Inhibition of COX-2 in comparison” value at COX-2 is recorded as “less inhibition”. Besides, on egg albumin, the inhibition at 50 µg/mL was determined as 55%, the inhibition at 100 µg/mL is 59.8%, the inhibition at 200 µg/mL worked out at 65.7% and the inhibition at 300 µg/mL stood at 73.6%. The “Inhibition of COX-1 in comparison” value on COX-1 is given as “less inhibition”.
As to `CN(C)c1ccc(C2N=C(N)Nc3nc(C(=O)Nc4ccc(S(N)(=O)=O)cc4)nn32)cc1` (centres unmarked) [Compound 12, 5-Amino-7-(4-(dimethylamino)phenyl)-N-(4-sulfamoylphenyl)-4,7-dihydro-[1,2,4]-triazolo[1,5-a][1,3,5]triazine-2-carboxamide], on COX-2, the half-maximal inhibitory concentration (IC50) was 92.9 µM, the Selectivity index turned out to be 2.06, the inhibition at 50 µg/mL is 59.1 ± 0.01% and the inhibition at 100 µg/mL stood at 80.98 ± 0.02%. Besides, the inhibition at 150 µg/mL at COX-2 came out at 98.4 ± 0.02%. Besides, at egg albumin, the inhibition at 50 µg/mL amounted to 55.8%, the inhibition at 100 µg/mL was determined as 60.5%, the inhibition at 200 µg/mL came out at 66.3% and the inhibition at 300 µg/mL worked out at 74.2%. Moreover, at COX-1, 192 µM corresponded to half-maximal inhibition (IC50), the inhibition at 50 µg/mL was determined as 28.64 ± 0.04%, the inhibition at 100 µg/mL worked out at 53.24 ± 0.03% and the inhibition at 150 µg/mL came out at 70.68 ± 0.04%.

Values taken from article PMC11146149 (RSC Advances, 2024).
